Assay results taken from patent US11090310B2, “Methods and compositions for treating hypertriglyceridemia” (THE REGENTS OF THE UNIVERSITY OF CALIFORNIA, priority 2016, dated 2021).

Legend:
[1] = Plasma triglyceride levels of patients with GPIHBP1 autoantibodies under drug treatment (case follow-up); assay type: in vivo, human; conditions: for effect of treatment on plasma triglycerides / hypertriglyceridemia (in words): case reports of single patients (111, 157, 164)
autoantibodies = conditions: in patients, literature reports; cited from earlier work
V5-tagged human LPL = molecular target: T1, V5-tagged human LPL (Homo sapiens, UniProt P06858); experiment: Cell-based LPL-GPIHBP1 binding assay of GPIHBP1 variants; conditions: transfected CHO pgsA-745 cells or HUVEC
T1 construct: made in house
T1 sequence (P06858 28-475): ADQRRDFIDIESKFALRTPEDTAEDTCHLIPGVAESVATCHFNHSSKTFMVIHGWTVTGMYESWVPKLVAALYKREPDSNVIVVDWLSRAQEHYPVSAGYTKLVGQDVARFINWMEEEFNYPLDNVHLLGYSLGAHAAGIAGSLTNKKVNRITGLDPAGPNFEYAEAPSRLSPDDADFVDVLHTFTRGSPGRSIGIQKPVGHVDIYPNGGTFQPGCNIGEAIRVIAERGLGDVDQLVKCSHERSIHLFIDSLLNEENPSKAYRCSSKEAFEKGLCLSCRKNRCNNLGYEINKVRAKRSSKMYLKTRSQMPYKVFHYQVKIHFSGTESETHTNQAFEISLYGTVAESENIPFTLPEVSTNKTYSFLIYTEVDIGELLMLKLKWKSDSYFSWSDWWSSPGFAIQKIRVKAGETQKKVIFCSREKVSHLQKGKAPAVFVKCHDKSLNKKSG
Description: Expression vectors for S-protein-tagged wild-type (wt) GPIHBP1, GPIHBP1-G175R, and GPIHBP1-W109S (or the empty vector) were transfected into CHO pgsA-745 cells or human umbilical vein endothelial cells (HUVEC). After 1 day, the cells were washed three times in PBS and incubated for 1 h at 4° C. with V5-tagged human LPL (900 ng/well). Then the cells were washed six times in PBS, and cell lysates were collected in RIPA buffer (Sigma) containing a protease inhibitor cocktail (Roche). Proteins were separated by SDS-PAGE, and western blots were performed under reducing conditions with a goat antibody against the S-protein tag (Abcam, 5 μg/ml), followed by an IRdye680-donkey anti-goat IgG (LI-COR, 1:2000) and an IRdye800-V5 antibody (1:500).

## COc1c(C)c2c(c(O)c1C/C=C(\C)CCC(=O)OCCN1CCOCC1)C(=O)OC2 [Mycophenolate mofetil]
[1]
  effect of treatment on plasma triglycerides / hypertriglyceridemia (in words): failed to lower the plasma triglyceride levels
[1]; single patients: 101 (prednisolone 10 mg/day, salazosulfapyridine 1000 mg/day), 111, 164 (mycophenolate mofetil 750 + 500 mg/day, hydroxychloroquine 100 mg/day)
  Follow-up (mg/dl): follow-up plasma triglyceride levels after treatment: 2,573-4,085 mg/dl

## Belimumab
autoantibodies
  reduction of autoantibodies: reduce autoantibodies

## Rituximab
autoantibodies
  reduction of autoantibodies: reducing the production of autoantibodies in patients

## n−3 fatty acids
[1]
  effect of treatment on plasma triglycerides / hypertriglyceridemia (in words): resistant

B1: GPIHBP1-G175R: GPIHBP1 with G175R missense substitution in the carboxyl-terminal hydrophobic domain (protein)
chain: QTQQEEEEEDEDHGPDDYDEEDEDEVEEEETNRLPGGRSRVLLRCYTCKSLPRDERCNLTQNCSHGQTCTTLIAHGNTESGLLTTHSTWCTDSCQPITKTVEGTQVTMTCCQSSLCNVPPWQSSRVQDPTG
modifications: left off: small tags and cut ends
notes: GPIHBP1 with G175R missense substitution in the carboxyl-terminal hydrophobic domain
V5-tagged human LPL
  LPL binding by GPIHBP1 variant expressed on cells: binds LPL avidly

B2: GPIHBP1-W109S: mutant GPIHBP1 which lacks the ability to bind LPL, used as control (protein)
chain: QTQQEEEEEDEDHGPDDYDEEDEDEVEEEETNRLPGGRSRVLLRCYTCKSLPRDERCNLTQNCSHGQTCTTLIAHGNTESGLLTTHSTSCTDSCQPITKTVEGTQVTMTCCQSSLCNVPPWQSSRVQDPTG
modifications: left off: small tags and cut ends
V5-tagged human LPL
  LPL binding by GPIHBP1 variant expressed on cells: lacks the ability to bind LPL
